# Tests used:
# Experiment in all cases: relative viability (nuclei count vs DMSO), 5 days (fraction); higher = more cells survive
# [1] = tested on: NCI-H1648
# Summary of the method: (§1)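 Each reported value is a median over duplicate plates. It expresses relative viability: treated-well nuclei count divided by vehicle-well nuclei count. Lung cancer cell lines in 1536-well plates were dosed by pin tool a day after seeding, alone with one drug or with a fixed anchor-drug dose plus five library-drug doses (not always all listed) in √10 steps, and nuclei were counted after 5 days.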
# [2] = tested on: NCI-H1666
# Summary of the method: as §1
# [3] = tested on: NCI-H1944
# Summary of the method: as §1
# [4] = tested on: NCI-H596
# Summary of the method: as §1
# [5] = tested on: NCI-H661
# Summary of the method: as §1
# [6] = tested on: PC-14
# Summary of the method: as §1
# [7] = tested on: SK-LU-1
# Summary of the method: as §1
structure (smiles),measurement,setting,value
CCNC(=O)c1noc(-c2cc(C(C)C)c(O)cc2O)c1-c1ccc(CN2CCOCC2)cc1 [Luminespib] + CC(=O)Nc1cccc(-n2c(=O)n(C3CC3)c(=O)c3c(Nc4ccc(I)cc4F)n(C)c(=O)c(C)c32)c1 [Trametinib] (partner 0.02 µM),relative viability,[1]; first compound 0.002 µM,0.395
same,relative viability,[1]; first compound 0.006325 µM,0.492
same,relative viability,[1]; first compound 0.02 µM,0.513
same,relative viability,[1]; first compound 0.06325 µM,0.407
same,relative viability,[1]; first compound 0.2 µM,0.278
same,relative viability,[2]; first compound 0.002 µM,0.845
same,relative viability,[2]; first compound 0.006325 µM,0.869
same,relative viability,[2]; first compound 0.02 µM,0.942
same,relative viability,[2]; first compound 0.06325 µM,0.818
same,relative viability,[2]; first compound 0.2 µM,0.982
same,relative viability,[3]; first compound 0.002 µM,0.467
same,relative viability,[3]; first compound 0.006325 µM,0.4
same,relative viability,[3]; first compound 0.02 µM,0.387
same,relative viability,[3]; first compound 0.06325 µM,0.405
same,relative viability,[3]; first compound 0.2 µM,0.354
same,relative viability,[4]; first compound 0.002 µM,0.873
same,relative viability,[4]; first compound 0.006325 µM,0.835
same,relative viability,[4]; first compound 0.02 µM,0.743
same,relative viability,[4]; first compound 0.06325 µM,0.806
same,relative viability,[4]; first compound 0.2 µM,0.646
same,relative viability,[5]; first compound 0.002 µM,0.56
same,relative viability,[5]; first compound 0.006325 µM,0.553
same,relative viability,[5]; first compound 0.02 µM,0.382
same,relative viability,[5]; first compound 0.06325 µM,0.265
same,relative viability,[5]; first compound 0.2 µM,0.256
same,relative viability,[6]; first compound 0.002 µM,0.738
same,relative viability,[6]; first compound 0.006325 µM,0.652
same,relative viability,[6]; first compound 0.02 µM,0.243
same,relative viability,[6]; first compound 0.06325 µM,0.0663
same,relative viability,[6]; first compound 0.2 µM,0.0601
same,relative viability,[7]; first compound 0.002 µM,0.478
same,relative viability,[7]; first compound 0.006325 µM,0.371
same,relative viability,[7]; first compound 0.02 µM,0.314
same,relative viability,[7]; first compound 0.06325 µM,0.178
same,relative viability,[7]; first compound 0.2 µM,0.185
CCNC(=O)c1noc(-c2cc(C(C)C)c(O)cc2O)c1-c1ccc(CN2CCOCC2)cc1 [Luminespib] + CC(=O)c1c(C)c2cnc(Nc3ccc(N4CCNCC4)cn3)nc2n(C2CCCC2)c1=O [Palbociclib] (partner 0.5 µM),relative viability,[1]; first compound 0.002 µM,0.216
same,relative viability,[1]; first compound 0.006325 µM,0.336
same,relative viability,[1]; first compound 0.02 µM,0.246
same,relative viability,[1]; first compound 0.06325 µM,0.361
same,relative viability,[1]; first compound 0.2 µM,0.387
same,relative viability,[2]; first compound 0.002 µM,0.647
same,relative viability,[2]; first compound 0.006325 µM,0.67
same,relative viability,[2]; first compound 0.02 µM,0.673
same,relative viability,[2]; first compound 0.06325 µM,0.705
same,relative viability,[2]; first compound 0.2 µM,0.655
same,relative viability,[3]; first compound 0.002 µM,0.309
same,relative viability,[3]; first compound 0.006325 µM,0.389
same,relative viability,[3]; first compound 0.02 µM,0.249
same,relative viability,[3]; first compound 0.06325 µM,0.316
same,relative viability,[3]; first compound 0.2 µM,0.303
same,relative viability,[5]; first compound 0.002 µM,0.427
same,relative viability,[5]; first compound 0.006325 µM,0.396
same,relative viability,[5]; first compound 0.02 µM,0.315
same,relative viability,[5]; first compound 0.06325 µM,0.309
same,relative viability,[5]; first compound 0.2 µM,0.322
same,relative viability,[6]; first compound 0.002 µM,0.541
same,relative viability,[6]; first compound 0.006325 µM,0.367
same,relative viability,[6]; first compound 0.02 µM,0.315
same,relative viability,[6]; first compound 0.06325 µM,0.0535
same,relative viability,[6]; first compound 0.2 µM,0.0542
same,relative viability,[7]; first compound 0.002 µM,0.456
same,relative viability,[7]; first compound 0.006325 µM,0.318
same,relative viability,[7]; first compound 0.02 µM,0.294
same,relative viability,[7]; first compound 0.06325 µM,0.186
same,relative viability,[7]; first compound 0.2 µM,0.194
CCNC(=O)c1noc(-c2cc(C(C)C)c(O)cc2O)c1-c1ccc(CN2CCOCC2)cc1 [Luminespib] + Nc1nc2[nH]cc(CCc3ccc(C(=O)N[C@@H](CCC(=O)O)C(=O)O)cc3)c2c(=O)[nH]1 [Pemetrexed] (partner 0.2 µM),relative viability,[1]; first compound 0.002 µM,0.753
same,relative viability,[1]; first compound 0.006325 µM,0.683
same,relative viability,[1]; first compound 0.02 µM,0.899
same,relative viability,[1]; first compound 0.06325 µM,0.749
same,relative viability,[1]; first compound 0.2 µM,0.267
same,relative viability,[2]; first compound 0.002 µM,0.876
same,relative viability,[2]; first compound 0.006325 µM,0.799
same,relative viability,[2]; first compound 0.02 µM,0.908
same,relative viability,[2]; first compound 0.06325 µM,0.833
same,relative viability,[2]; first compound 0.2 µM,0.911
same,relative viability,[3]; first compound 0.002 µM,0.636
same,relative viability,[3]; first compound 0.006325 µM,0.602
same,relative viability,[3]; first compound 0.02 µM,0.477
same,relative viability,[3]; first compound 0.06325 µM,0.258
same,relative viability,[3]; first compound 0.2 µM,0.149
same,relative viability,[4]; first compound 0.002 µM,0.526
same,relative viability,[4]; first compound 0.006325 µM,0.493
same,relative viability,[4]; first compound 0.02 µM,0.548
same,relative viability,[4]; first compound 0.06325 µM,0.518
same,relative viability,[4]; first compound 0.2 µM,0.528
same,relative viability,[5]; first compound 0.002 µM,0.921
same,relative viability,[5]; first compound 0.006325 µM,0.863
same,relative viability,[5]; first compound 0.02 µM,0.966
same,relative viability,[5]; first compound 0.06325 µM,0.651
same,relative viability,[5]; first compound 0.2 µM,0.318
same,relative viability,[6]; first compound 0.002 µM,0.148
same,relative viability,[6]; first compound 0.006325 µM,0.175
same,relative viability,[6]; first compound 0.02 µM,0.132
same,relative viability,[6]; first compound 0.06325 µM,0.0853
same,relative viability,[6]; first compound 0.2 µM,0.0503
same,relative viability,[7]; first compound 0.002 µM,1.01
same,relative viability,[7]; first compound 0.006325 µM,0.779
same,relative viability,[7]; first compound 0.02 µM,0.825
same,relative viability,[7]; first compound 0.06325 µM,0.244
same,relative viability,[7]; first compound 0.2 µM,0.206
Cc1csc(=NC2CCCCC2)n1/N=C/c1ccc(O)c(O)c1O [MIM1] + CC(=O)Nc1cccc(-n2c(=O)n(C3CC3)c(=O)c3c(Nc4ccc(I)cc4F)n(C)c(=O)c(C)c32)c1 [Trametinib] (partner 0.02 µM),relative viability,[1]; first compound 0.2 µM,0.419
same,relative viability,[1]; first compound 0.6325 µM,0.439
same,relative viability,[1]; first compound 2 µM,0.619
same,relative viability,[1]; first compound 6.325 µM,0.499
same,relative viability,[1]; first compound 20 µM,0.267
same,relative viability,[2]; first compound 0.2 µM,0.929
same,relative viability,[2]; first compound 0.6325 µM,0.833
same,relative viability,[2]; first compound 2 µM,0.847
same,relative viability,[2]; first compound 6.325 µM,0.826
same,relative viability,[2]; first compound 20 µM,0.426
same,relative viability,[3]; first compound 0.2 µM,0.386
same,relative viability,[3]; first compound 0.6325 µM,0.462
same,relative viability,[3]; first compound 2 µM,0.307
same,relative viability,[3]; first compound 6.325 µM,0.364
same,relative viability,[3]; first compound 20 µM,0.265
same,relative viability,[4]; first compound 0.2 µM,0.702
same,relative viability,[4]; first compound 0.6325 µM,0.95
same,relative viability,[4]; first compound 2 µM,0.745
same,relative viability,[4]; first compound 6.325 µM,0.667
same,relative viability,[4]; first compound 20 µM,0.56
same,relative viability,[5]; first compound 0.2 µM,0.607
same,relative viability,[5]; first compound 0.6325 µM,0.587
same,relative viability,[5]; first compound 2 µM,0.554
same,relative viability,[5]; first compound 6.325 µM,0.406
same,relative viability,[5]; first compound 20 µM,0.348
same,relative viability,[6]; first compound 0.2 µM,0.663
same,relative viability,[6]; first compound 0.6325 µM,0.882
same,relative viability,[6]; first compound 2 µM,0.479
same,relative viability,[6]; first compound 6.325 µM,0.621
same,relative viability,[6]; first compound 20 µM,0.17
same,relative viability,[7]; first compound 0.2 µM,0.471
same,relative viability,[7]; first compound 0.6325 µM,0.528
same,relative viability,[7]; first compound 2 µM,0.516
same,relative viability,[7]; first compound 6.325 µM,0.459
same,relative viability,[7]; first compound 20 µM,0.202
Cc1csc(=NC2CCCCC2)n1/N=C/c1ccc(O)c(O)c1O [MIM1] + CC(=O)c1c(C)c2cnc(Nc3ccc(N4CCNCC4)cn3)nc2n(C2CCCC2)c1=O [Palbociclib] (partner 0.5 µM),relative viability,[1]; first compound 0.2 µM,0.262
same,relative viability,[1]; first compound 0.6325 µM,0.284
same,relative viability,[1]; first compound 2 µM,0.311
same,relative viability,[1]; first compound 6.325 µM,0.276
same,relative viability,[1]; first compound 20 µM,0.248
same,relative viability,[2]; first compound 0.2 µM,0.668
same,relative viability,[2]; first compound 0.6325 µM,0.608
same,relative viability,[2]; first compound 2 µM,0.611
same,relative viability,[2]; first compound 6.325 µM,0.647
same,relative viability,[2]; first compound 20 µM,0.67
same,relative viability,[3]; first compound 0.2 µM,0.369
same,relative viability,[3]; first compound 0.6325 µM,0.314
same,relative viability,[3]; first compound 2 µM,0.248
same,relative viability,[3]; first compound 6.325 µM,0.255
same,relative viability,[3]; first compound 20 µM,0.186
same,relative viability,[5]; first compound 0.2 µM,0.404
same,relative viability,[5]; first compound 0.6325 µM,0.42
same,relative viability,[5]; first compound 2 µM,0.348
same,relative viability,[5]; first compound 6.325 µM,0.33
same,relative viability,[5]; first compound 20 µM,0.301
same,relative viability,[6]; first compound 0.2 µM,0.475
same,relative viability,[6]; first compound 0.6325 µM,0.554
same,relative viability,[6]; first compound 2 µM,0.464
same,relative viability,[6]; first compound 6.325 µM,0.454
same,relative viability,[6]; first compound 20 µM,0.145
same,relative viability,[7]; first compound 0.2 µM,0.442
same,relative viability,[7]; first compound 0.6325 µM,0.397
same,relative viability,[7]; first compound 2 µM,0.368
same,relative viability,[7]; first compound 6.325 µM,0.418
same,relative viability,[7]; first compound 20 µM,0.307

# From the supplement of paper PMC10307832
